# PubChem BioAssay (NCI)
#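 Results reflect a 48-hour exposure of cells in 96-well plates to compound at five concentrations. The concentration for 50% growth inhibition is given as GI50. The concentration for full growth arrest is given as TGI.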
# Assays:
# Experiment in all cases: NCI-60 cell line screen, 48 h
# LOX IMVI melanoma = test system: LOX IMVI melanoma
# OVCAR-5 ovarian = test system: OVCAR-5 ovarian
# MDA-MB-435 = test system: MDA-MB-435
# M14 melanoma = test system: M14 melanoma
# SNB-19 CNS = test system: SNB-19 CNS
# A549 NSCLC = test system: A549 NSCLC
# SN12C renal = test system: SN12C renal
# HL-60(TB) leukemia = test system: HL-60(TB) leukemia
# HOP-92 NSCLC = test system: HOP-92 NSCLC
# CCRF-CEM leukemia = test system: CCRF-CEM leukemia
# NCI-H226 lung = test system: NCI-H226 lung
# DU-145 prostate = test system: DU-145 prostate
# SW-620 colon = test system: SW-620 colon
# PC-3 prostate = test system: PC-3 prostate
# HT29 colon = test system: HT29 colon
# SK-MEL-2 melanoma = test system: SK-MEL-2 melanoma
# SF-268 CNS = test system: SF-268 CNS
# KM12 colon = test system: KM12 colon
# SK-MEL-28 melanoma = test system: SK-MEL-28 melanoma
# MDA-MB-231 breast = test system: MDA-MB-231 breast
# TK-10 renal = test system: TK-10 renal
# UACC-62 melanoma = test system: UACC-62 melanoma
# MOLT-4 leukemia = test system: MOLT-4 leukemia
# IGROV1 ovarian = test system: IGROV1 ovarian
# SK-OV-3 ovarian = test system: SK-OV-3 ovarian
# SF-539 CNS = test system: SF-539 CNS
# SK-MEL-5 melanoma = test system: SK-MEL-5 melanoma
# MCF7 breast = test system: MCF7 breast
# HCT-116 colon = test system: HCT-116 colon
# UO-31 renal = test system: UO-31 renal
# SNB-75 CNS = test system: SNB-75 CNS
# NCI-H23 lung = test system: NCI-H23 lung
# NCI/ADR-RES ovarian = test system: NCI/ADR-RES ovarian
# ACHN renal = test system: ACHN renal
# CAKI-1 renal = test system: CAKI-1 renal
# RPMI-8226 leukemia = test system: RPMI-8226 leukemia
# RXF 393 renal = test system: RXF 393 renal
# EKVX NSCLC = test system: EKVX NSCLC
# 786-0 renal = test system: 786-0 renal
# UACC-257 melanoma = test system: UACC-257 melanoma
# NCI-H522 lung = test system: NCI-H522 lung
# HS 578T breast = test system: HS 578T breast
# SF-295 CNS = test system: SF-295 CNS
# NCI-H460 lung = test system: NCI-H460 lung
# COLO 205 colon = test system: COLO 205 colon
# SR leukemia = test system: SR leukemia
# BT-549 breast = test system: BT-549 breast
# OVCAR-4 ovarian = test system: OVCAR-4 ovarian
# HCT-15 colon = test system: HCT-15 colon
# T-47D breast = test system: T-47D breast
# A498 renal = test system: A498 renal
# HCC-2998 colon = test system: HCC-2998 colon
# MALME-3M melanoma = test system: MALME-3M melanoma
# K-562 leukemia = test system: K-562 leukemia
# OVCAR-8 ovarian = test system: OVCAR-8 ovarian
# U251 CNS = test system: U251 CNS
# HOP-62 NSCLC = test system: HOP-62 NSCLC
smiles,measurement,setting,value
CC[C@]12C=CCN3CC[C@]4(C(=C(C(=O)OC)C1)Nc1cc5c(cc14)[C@@H]1[C@H](O5)[C@@H](O)[C@@]4(CC)CC(C(=O)OC)=C5Nc6cc(OC)ccc6[C@@]56CCN1[C@@H]46)[C@@H]32,GI50,LOX IMVI melanoma,29.6 nM
same,TGI,LOX IMVI melanoma,105 nM
same,GI50,OVCAR-5 ovarian,294 nM
same,TGI,OVCAR-5 ovarian,5.34 µM
same,GI50,MDA-MB-435,173 nM
same,TGI,MDA-MB-435,1460 nM
same,GI50,M14 melanoma,163 nM
same,TGI,M14 melanoma,3.14 µM
same,GI50,SNB-19 CNS,300 nM
same,TGI,SNB-19 CNS,14.9 µM
same,GI50,A549 NSCLC,368 nM
same,TGI,A549 NSCLC,6.94 µM
same,GI50,SN12C renal,236 nM
same,TGI,SN12C renal,5.96 µM
same,GI50,HL-60(TB) leukemia,58.3 nM
same,GI50,HOP-92 NSCLC,70.9 nM
same,TGI,HOP-92 NSCLC,4.05 µM
same,GI50,CCRF-CEM leukemia,161 nM
same,TGI,CCRF-CEM leukemia,> 50 µM
same,GI50,NCI-H226 lung,160 nM
same,TGI,NCI-H226 lung,4.3 µM
same,GI50,DU-145 prostate,591 nM
same,TGI,DU-145 prostate,> 20.4 µM
same,GI50,SW-620 colon,177 nM
same,TGI,SW-620 colon,1260 nM
same,GI50,PC-3 prostate,225 nM
same,TGI,PC-3 prostate,5.14 µM
same,GI50,HT29 colon,161 nM
same,TGI,HT29 colon,1810 nM
same,GI50,SK-MEL-2 melanoma,229 nM
same,TGI,SK-MEL-2 melanoma,2930 nM
same,GI50,SF-268 CNS,343 nM
same,TGI,SF-268 CNS,11.7 µM
same,GI50,KM12 colon,231 nM
same,TGI,KM12 colon,3.23 µM
same,GI50,SK-MEL-28 melanoma,457 nM
same,TGI,SK-MEL-28 melanoma,3.26 µM
same,GI50,MDA-MB-231 breast,163 nM
same,TGI,MDA-MB-231 breast,> 11.4 µM
same,GI50,TK-10 renal,128 nM
same,TGI,TK-10 renal,1050 nM
same,GI50,UACC-62 melanoma,103 nM
same,TGI,UACC-62 melanoma,1630 nM
same,GI50,MOLT-4 leukemia,190 nM
same,TGI,MOLT-4 leukemia,> 50 µM
same,GI50,IGROV1 ovarian,152 nM
same,TGI,IGROV1 ovarian,2010 nM
same,GI50,SK-OV-3 ovarian,167 nM
same,TGI,SK-OV-3 ovarian,706 nM
same,GI50,SF-539 CNS,147 nM
same,TGI,SF-539 CNS,1330 nM
same,GI50,SK-MEL-5 melanoma,227 nM
same,TGI,SK-MEL-5 melanoma,2980 nM
same,GI50,MCF7 breast,121 nM
same,TGI,MCF7 breast,> 16.5 µM
same,GI50,HCT-116 colon,102 nM
same,TGI,HCT-116 colon,352 nM
same,GI50,UO-31 renal,131 nM
same,TGI,UO-31 renal,2180 nM
same,GI50,SNB-75 CNS,345 nM
same,TGI,SNB-75 CNS,4.44 µM
same,GI50,NCI-H23 lung,171 nM
same,TGI,NCI-H23 lung,805 nM
same,GI50,NCI/ADR-RES ovarian,388 nM
same,TGI,NCI/ADR-RES ovarian,> 50 µM
same,GI50,ACHN renal,174 nM
same,TGI,ACHN renal,690 nM
same,GI50,CAKI-1 renal,87.7 nM
same,TGI,CAKI-1 renal,2130 nM
same,GI50,RPMI-8226 leukemia,133 nM
same,TGI,RPMI-8226 leukemia,576 nM
same,GI50,RXF 393 renal,150 nM
same,TGI,RXF 393 renal,613 nM
same,GI50,EKVX NSCLC,253 nM
same,TGI,EKVX NSCLC,12.3 µM
same,GI50,786-0 renal,92.9 nM
same,TGI,786-0 renal,1070 nM
same,GI50,UACC-257 melanoma,183 nM
same,TGI,UACC-257 melanoma,3.72 µM
same,GI50,NCI-H522 lung,109 nM
same,TGI,NCI-H522 lung,349 nM
same,GI50,HS 578T breast,211 nM
same,TGI,HS 578T breast,> 50 µM
same,GI50,SF-295 CNS,250 nM
same,TGI,SF-295 CNS,13.8 µM
same,GI50,NCI-H460 lung,407 nM
same,TGI,NCI-H460 lung,5.55 µM
same,GI50,COLO 205 colon,108 nM
same,TGI,COLO 205 colon,437 nM
same,GI50,SR leukemia,137 nM
same,TGI,SR leukemia,2820 nM
same,GI50,BT-549 breast,230 nM
same,TGI,BT-549 breast,2220 nM
same,GI50,OVCAR-4 ovarian,181 nM
same,TGI,OVCAR-4 ovarian,> 50 µM
same,GI50,HCT-15 colon,137 nM
same,TGI,HCT-15 colon,511 nM
same,GI50,T-47D breast,155 nM
same,TGI,T-47D breast,1330 nM
same,GI50,A498 renal,98 nM
same,TGI,A498 renal,299 nM
same,GI50,HCC-2998 colon,130 nM
same,TGI,HCC-2998 colon,557 nM
same,GI50,MALME-3M melanoma,187 nM
same,TGI,MALME-3M melanoma,3.8 µM
same,GI50,K-562 leukemia,117 nM
same,TGI,K-562 leukemia,> 50 µM
same,GI50,OVCAR-8 ovarian,199 nM
same,TGI,OVCAR-8 ovarian,2470 nM
same,GI50,U251 CNS,174 nM
same,TGI,U251 CNS,877 nM
same,GI50,HOP-62 NSCLC,189 nM
same,TGI,HOP-62 NSCLC,3.12 µM
